Bridges are numbered along the chain shown (N, C = ends). Roman numbers before positions name the chains, in order. Where no end group is shown, it is not given here. [ ]: non-standard residue; d: D form. The star is where a group is joined. ξ: configuration not given here. 1Nal = N[C@@H](Cc1cccc2ccccc12)C(=O)O; NH(CH2CH2O)2CH2CH2NH2 = NCCOCCOCCN*; hSer = N[C@@H](CCO)C(=O)O; ξK = NCCCCC(N)C(=O)O; Ahx = NCCCCCC(=O)O; Sar = CNCC(=O)O
Assays:
human EPO-R = target: T1, human EPO-R (Homo sapiens, UniProt P19235); assay: Proliferation assay (BaF3/Gal4/Elk/EPOR cells, MTT); assay type: cell-based; settings: 48 h
T1 construct: expressed in transfected cells; host or cells: murine pre-B-cell line Baf3 (BaF3/Gal4/Elk/EPOR)
T1 sequence (P19235 25-508): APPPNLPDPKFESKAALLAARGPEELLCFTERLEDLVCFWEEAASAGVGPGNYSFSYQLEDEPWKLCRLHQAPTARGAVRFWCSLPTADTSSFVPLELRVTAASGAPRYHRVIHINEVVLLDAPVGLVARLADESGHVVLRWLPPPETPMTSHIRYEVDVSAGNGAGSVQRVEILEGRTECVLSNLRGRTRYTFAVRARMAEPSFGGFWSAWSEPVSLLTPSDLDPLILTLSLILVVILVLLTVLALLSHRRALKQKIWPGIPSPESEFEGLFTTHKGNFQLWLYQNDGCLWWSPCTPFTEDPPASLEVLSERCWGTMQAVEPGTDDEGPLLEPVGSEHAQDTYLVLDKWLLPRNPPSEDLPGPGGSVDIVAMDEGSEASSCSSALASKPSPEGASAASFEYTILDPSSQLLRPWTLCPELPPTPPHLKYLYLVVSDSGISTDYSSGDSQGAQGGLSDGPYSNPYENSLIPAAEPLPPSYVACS
Experimental: This assay is based upon a murine pre-B-cell line, Baf3, transfected to express human EPO-R. Proliferation of the resulting cell line, BaF3/Gal4/Elk/EPOR, is dependent on EPO-R activation. The degree of cell proliferation is quantitated using MTT, where the signal in the MTT assay is proportional to the number of viable cells.
The BaF3/Ga14/Elk/EPOR cells are cultured in spinner flasks in DMEM/F12 medium (Gibco) supplemented with 10% FBS (Hyclone) and 2% WEHI-3 supernatant (ATCC # TIB-68). Cultured cells are starved overnight, in a spinner flask at a cell density of 1×10^6 cells/ml, in DMEM/F12 medium supplemented with 10% FBS and 0.1% WEHI-3 supernatant. The starved cells are then washed twice with Dulbecco's PBS (Gibco), and resuspended to a density of 1×10^6 cells/ml in DMEM/F12 supplemented with 10% FBS (no WEHI-3 supernatant). 50 μL , aliquots (˜50,000 cells) of the cell suspension are then plated, in triplicate, in 96 well assay plates. […] The plated cells are then incubated for 48 h at 37° C. Next, 10 μL of MTT (Roche Diagnostics) is added to each culture dish well, and then allowed to incubate for 4 h. The reaction is then stopped by adding 10% SDS+0.01N HCl. The plates are then incubated overnight at 37° C. Absorbance of each well at a wavelength of 595 nm is then measured by spectrophotometry. Plots of the absorbance readings versus test peptide concentration are constructed and the EC50 calculated using Graph Pad software. The concentration of test peptide that results in a half-maximal absorbance is recorded as the EC50 [See Table 3: Proliferation EC50].

[1] = system: human, bone marrow derived CD34+ cells; assay type: cell-based
Excerpt: EPO-R signaling stimulates the differentiation of bone marrow stem cells into proliferating red blood cell precursors. This assay measures the ability of test peptides to stimulate the proliferation and differentiation of red blood cell precursors from primary human bone marrow pluripotent stem cells.
For this assay, serial dilutions of test peptide are made in IMDM medium (Gibco) supplemented with 10% FBS (Hyclone). […] The methylcellulose and peptide mixture is then vortexed thoroughly. Aliquots (100,000 cells/mL) of human, bone marrow derived CD34+ cells (Poietics/Cambrex) are thawed. The thawed cells are gently added to 0.1 mL of 1 mg/ml DNAse (Stem Cells) in a 50 mL tube. Next, 40-50 mL IMDM medium is added gently to cells: the medium is added drop by drop along the side of the 50 mL tube for the first 10 mL, and then the remaining volume of medium is slowly dispensed along the side of the tube. The cells are then spun at 900 rpm for 20 min, and the media removed carefully by gentle aspiration. The cells are resuspended in 1 ml of IMDM medium and the cell density per mL is counted on hemacytometer slide (10 μL aliquot of cell suspension on slide, and cell density is the average count×10,000 cells/mil). The cells are then diluted in IMDM medium to a cell density of 15,000 cells/mL. A 100 μL of diluted cells is then added to each 1.5 mL methyl cellulose plus peptide sample (final cell concentration in assay media is 1000 cells/mL), and the mixture is vortexed. Allow the bubbles in the mixture to disappear, and then aspirate 1 mL using blunt-end needle. Add 0.25 mL aspirated mixture from each sample into each of 4 wells of a 24-well plate (Falcon brand). Incubate the plated mixtures at 37° C. under 5% CO2 in a humid incubator for 14 days. Score for the presence of erythroid colonies using a phase microscope (5×-10× objective, final magnification of 100×).

[2] = target: chimeric receptor comprising the extra-cellular portion of the human EPO receptor to the intra-cellular portion of the human GCSF receptor; assay: Reporter assay (Baf3/EpoR/GCSFR fos/lux luciferase); assay type: cell-based; settings: peptide monomers; Baf3/EpoR/GCSFR fos/lux cells, 4 h
Experimental: One assay is based upon a murine pre-B-cell line expressing human EPO-R and further transfected with a fos promoter-driven luciferase reporter gene construct. Upon exposure to EPO or another EPO-R agonist, such cells respond by synthesizing luciferase. Luciferase causes the emission of light upon addition of its substrate luciferin. Thus, the level of EPO-R activation in such cells may be quantitated via measurement of luciferase activity. The activity of a test peptide is measured by adding serial dilutions of the test peptide to the cells, which are then incubated for 4 hours. After incubation, luciferin substrate is added to the cells, and light emission is measured. The concentration of test peptide that results in a half-maximal emission of light is recorded as the EC50.
This assay is based upon a on a murine pre-B-cell line derived reporter cell, Baf3/EpoR/GCSFR fos/lux. […] Thus, the level of EPO-R activation in such cells may be quantitated via measurement of luciferase activity.
The Baf3/EpoR/GCSFR fos/lux cells are cultured in DMEM/F12 medium (Gibco) supplemented with 10% fetal bovine serum (FBS; Hyclone), 10% WEHI-3 supernatant (the supernatant from a culture of WEHI-3 cells, ATCC # TIB-68), and penicillin/streptomycin. […] Following a 5-minute incubation, light emission is measured on a Packard Topcount Luminometer (Packard Instrument Co., Downers Grove, Ill.). […]

recombinant EPO-R = target: T2, recombinant EPO-R (Homo sapiens, UniProt P19235); assay: Competitive binding assay (AQ, bead proximity, tracer AF33068); settings: tracer AF33068 30 nM, 18 hours
T2 construct: made in house; host or cells: Chinese Hamster Ovary cells
T2 sequence (P19235 25-250 limits assumed): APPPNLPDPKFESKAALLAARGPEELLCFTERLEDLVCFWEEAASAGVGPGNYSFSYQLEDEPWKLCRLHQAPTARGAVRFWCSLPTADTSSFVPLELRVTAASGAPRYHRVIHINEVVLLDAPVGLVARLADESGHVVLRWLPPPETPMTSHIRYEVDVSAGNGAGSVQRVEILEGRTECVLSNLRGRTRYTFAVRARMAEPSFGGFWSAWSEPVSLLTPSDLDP
Excerpt: Competitive binding calculations are made using an assay in which a light signal is generated as a function of the proximity of two beads: a streptavidin donor bead bearing a biotinylated EPO-R-binding peptide tracer and an acceptor bead to which is bound EPO-R. Light is generated by non-radiative energy transfer, during which a singlet oxygen is released from a first bead upon illumination, and contact with the released singlet oxygen causes the second bead to emit light. These bead sets are commercially available (Packard). Bead proximity is generated by the binding of the EPO-R-binding peptide tracer to the EPO-R. A test peptide that competes with the EPO-R-binding peptide tracer for binding to EPO-R will prevent this binding, causing a decrease in light emission.
In more detail the method is as follows: Add 4 μL of serial dilutions of the test EPO-R agonist peptide, or positive or negative controls, to wells of a 384 well plate. Thereafter, add 2 μL/well of receptor/bead cocktail. […]
Centrifuge 1 min to mix. […] After 18 hours read light emission using an AlphaQuest reader (Packard). […]

Row | Substance | EC50 (human EPO-R) | EC90 [1] | EC50 [2] | IC50 (recombinant EPO-R)
1 | I: GGLYACH[hSer](Me)GPITWVCQPLR[Sar]K-NH2 / II: GGLYACH[hSer](Me)GPITWVCQPLR[Sar] (disulfide I:6-I:15, II:6-II:15; amide I:21-II:C) [AF35090] | 0.19 nM | 3.7 nM |  | 
2 | GGLYACHMGPMTVCQPLRG [AF31552] |  |  | 100 nM | 
3 | I: Ac-GGLYACH[hSer](Me)GPIT[1Nal]VCQPLR[Sar][ξK]-{NH(CH2CH2O)2CH2CH2NH2} / II: Ac-GGLYACH[hSer](Me)GPIT[1Nal]VCQPLR[Sar] (disulfide I:6-I:15, II:6-II:15; amide I:21-II:C) [AF35149] | 0.057 nM | 2 nM |  | 
4 | I: GGLYACHMGPIT[1Nal]VCQPLR[Sar]K-NH2 / II: GGLYACHMGPIT[1Nal]VCQPLR[Sar] (disulfide I:6-I:15, II:6-II:15; amide I:21-II:C) [AF34994] | 0.17 nM | 3.7 nM |  | 
5 | I: GGLYACHMGPITWVCQPLRGK-NH2 / II: GGLYACHMGPITWVCQPLRG (disulfide I:6-I:15, II:6-II:15; amide I:21-II:C) [AF32579] | 0.142 nM | 3 nM |  | 1.7 nM
6 | I: GGLYACH[hSer](Me)GPIT[1Nal]VCQPLRGK-NH2 / II: GGLYACH[hSer](Me)GPIT[1Nal]VCQPLRG (disulfide I:6-I:15, II:6-II:15; amide I:21-II:C) [AF32881] |  | 11 nM |  | 
7 | GGLYACHMGPMT(1-nal)VCQPLRG (GGLYACHMGPMT[1Nal]VCQPLRG; cysteine pairing not given here) [AF31748] |  |  | 40 nM | 
8 | I: Ac-GGLYACHMGPIT[1Nal]VCQPLR[Sar][ξK]-{NH(CH2CH2O)2CH2CH2NH2} / II: Ac-GGLYACHMGPIT[1Nal]VCQPLR[Sar] (disulfide I:6-I:15, II:6-II:15; amide I:21-II:C) [AF35525] | 0.057 nM | 3 nM |  | 
9 | I: Ac-GGLYACH[hSer](Me)GPIT[1Nal]VCQPLRGK[Ahx][Ahx] / II: Ac-GGLYACH[hSer](Me)GPIT[1Nal]VCQPLRG (disulfide I:6-I:15, II:6-II:15; amide I:21-II:C; N-terminus assumed) [AF35179] |  | 3.7 nM |  | 
10 | I: Ac-GGLYACHMGPITWVCQPLRGK[Ahx][Ahx] / II: Ac-GGLYACHMGPITWVCQPLRG (disulfide I:6-I:15, II:6-II:15; amide I:21-II:C; N-terminus assumed) [AF34753] |  | 1.2 nM |  | 
